According to patent US20240408057A1, “Composition for preventing or treating cachexia and muscle loss” (METAFINES.CO.LTD., priority 2023, published 2024):
Read-outs that look alike come from different tables or passages of the source.

Key:
[1] = molecular target: T1, human recombinant cyclooxygenase COX-2 (Homo sapiens, UniProt P35354); test: Inhibition of COX2 (Ampliflu Red spectrofluorescence); format: biochemical; settings: 10 μM, compared with untreated group
T1 construct: host or cells: insect Sf21 cells
T1 sequence (P35354 18-604): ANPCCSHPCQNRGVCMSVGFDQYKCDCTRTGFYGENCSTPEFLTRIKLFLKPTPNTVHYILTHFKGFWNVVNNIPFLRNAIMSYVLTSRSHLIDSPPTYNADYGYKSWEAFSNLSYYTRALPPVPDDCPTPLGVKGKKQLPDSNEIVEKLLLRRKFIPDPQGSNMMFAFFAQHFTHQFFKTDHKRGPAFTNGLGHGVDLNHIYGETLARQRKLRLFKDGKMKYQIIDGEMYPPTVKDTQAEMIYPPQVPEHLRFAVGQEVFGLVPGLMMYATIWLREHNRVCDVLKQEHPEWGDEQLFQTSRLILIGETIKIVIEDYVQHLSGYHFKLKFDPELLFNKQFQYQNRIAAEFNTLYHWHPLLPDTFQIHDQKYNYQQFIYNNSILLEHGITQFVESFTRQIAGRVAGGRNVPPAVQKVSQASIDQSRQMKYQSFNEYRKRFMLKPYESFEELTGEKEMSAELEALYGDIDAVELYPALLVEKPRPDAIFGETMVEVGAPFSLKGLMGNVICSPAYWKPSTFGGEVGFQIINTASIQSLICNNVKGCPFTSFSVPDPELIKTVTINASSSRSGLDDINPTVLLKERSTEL
Experimental: At this time, the concentration of the calcium salt contained in the buffer solution was set to 10 μM. As an enzyme, 34 U/mL of human recombinant cyclooxygenase COX-2 expressed in insect Sf21 cells was further added to the buffer solution, and pre-reacted at 25° C. for 15 minutes. In addition, 3 μM arachidonic acid and 100 μM Ampliflu Red were added and reacted at 25° C. for 3 minutes. The amount of Resofurin produced in the reaction process was measured at 535 nm/590 nm by a spectrofluorescence method, and the inhibitory effect on COX2 was confirmed by comparing with the calcium salt untreated group.

[2] = tested on: IL-1β; test: IL-1β in mouse blood, CT26 cachexia model; format: in vivo, Balb/c mice; settings: CT26 Balb/c cachexia model, 21 days; G4 PO 200 mpk, G5 IV 100 mpk, G6 IV 200 mpk; vs vehicle control G2
Experimental: The mice were sacrificed, and IL-1β and lactate were analyzed using the blood serum collected at autopsy, and the results are summarized in FIGS. 48A and 48B.
In FIG. 48, each group represents the following.

[3] = tested on: skeletal muscle (gastrocnemius, quadriceps, and soleus); settings: CT26 Balb/c cachexia model, 21 days
Experimental: A CT26 mouse colorectal cancer cell line was subcutaneously transplanted into Balb/c mice to construct a syngeneic model, and the calcium salt (Asc-Ca-DCA) of Preparation
Example 1 was administered to the mice for a total of 21 days. The mice were sacrificed, and three types of skeletal muscle (gastrocnemius, quadriceps, and soleus) were extracted at autopsy, and histopathological analysis was performed. Cross-sectional images of muscle tissue were obtained, and the muscle fiber cross-sectional area (CSA) was measured, and the results are summarized in FIGS. 50 to 52.
In FIGS. 50 to 52, each group represents the following. […] Scale bars inserted in A to F of FIGS. 50 to 52 represent a horizontal length of 100 μm.

[4] = Drug concentration in blood and pharmacokinetics factors after IV and PO administration; format: in vivo; settings: SD rats
Experimental: After the administration of each individual rat, blood was collected according to the elapsed time (0 to 48 hours), centrifuged, and the concentration of the administered drug in the blood and the pharmacokinetic factors (PK parameter) of the obtained plasma were analyzed through LC/MS/MS analysis, and the results are summarized in Table 1 below.

[5] = Wire hanging test; format: in vivo, Balb/c mice; settings: CT26 Balb/c cachexia model; G4 to G6; compared to G3 megestrol (positive control)
Experimental: Along with the above, a wire hanging test was performed once a week, and the animal was placed on top of a wire cage, and then turned the cage upside down and hung over the home cage, and the waiting time until the animal fell was recorded and summarized in FIG. 53B.

[6] = PO 2,000 mg/kg (1,000 mg/kg, BID), 1 day
[7] = PO 2,000 mg/kg (1,000 mg/kg, BID), 6 days

## O=C([O-])C(Cl)Cl.O=C1OC(C(O)CO)C([O-])=C1O.[Ca+2] (stereo not shown) [Preparation Example 1, calcium salts of ascorbic acid and dichloroacetic acid]
[1]
  inhibitory effect on COX2: 74%
[2]
  IL-1β in blood serum: decrease in the expression levels
[3]; G4 PO 200 mpk, G5 IV 100 mpk, G6 IV 200 mpk, vs vehicle control G2
  cross-sectional area of muscle tissue (gastrocnemius, quadriceps, soleus): increased the cross-sectional area
[3]; G4 to G6, compared to G3 megestrol 125 mpk
  cross-sectional area of muscle tissue (gastrocnemius, quadriceps, soleus): level similar
[4]; IV 200 mg/kg, 1 day
  AUClast: 19770 ng·h/mL
  Cmax: 30240 ng/mL
  Tmax: 0.25 h
  t1/2: 0.27 h
[4]; IV 200 mg/kg, 6 days
  AUClast: 7980 ng·h/mL
  Cmax: 2700 ng/mL
  Tmax: 0.00 h
  t1/2: 2.72 h
[4]; PO 200 mg/kg, 1 day
  AUClast: 38780 ng·h/mL
  Cmax: 23910 ng/mL
  Tmax: 0.50 h
  t1/2: 0.59 h
[4]; PO 200 mg/kg, 6 days
  AUClast: 34620 ng·h/mL
  Cmax: 6260 ng/mL
  Tmax: 0.00 h
  t1/2: 2.72 h
[4]; PO 500 mg/kg, 1 day
  AUClast: 353650 ng·h/mL
  Cmax: 66440 ng/mL
  Tmax: 1.50 h
  t1/2: 4.14 h
[4]; PO 500 mg/kg, 6 days
  AUClast: 147850 ng·h/mL
  Cmax: 21280 ng/mL
  Tmax: 0.00 h
  t1/2: 5.58 h
[4]; [6]
  AUClast: 889770 ng·h/mL
  Cmax: 130920 ng/mL
  Tmax: 1.75 h
  t1/2: 5.64 h
[4]; [7]
  AUClast: 575250 ng·h/mL
  Cmax: 77200 ng/mL
  Tmax: 0.00 h
  t1/2: 3.11 h
[5]
  wire hanging test: level similar
